The target in this assay is NEDD8-activating enzyme E1 regulatory subunit/NEDD8-activating enzyme E1 catalytic subunit (Human, UniProt Q8TBC4). The assay is described as follows: Test of Inhibiting NAE Enzyme Activity at the Molecular Level. As for the experimental part: 1. Preliminary Evaluation Experiment of Inhibiting NAE Enzyme Activity at the Molecular Level by CompoundsHomogeneous Time-Resolved Fluorescence (HTRF) technology was used to detect the in vitro inhibitory effect of the compound on NAE enzyme activity. […] IC50 was calculated with a GraphPad software.
Chain of NEDD8-activating enzyme E1 regulatory subunit/NEDD8-activating enzyme E1 catalytic subunit (Q13564 whole entry): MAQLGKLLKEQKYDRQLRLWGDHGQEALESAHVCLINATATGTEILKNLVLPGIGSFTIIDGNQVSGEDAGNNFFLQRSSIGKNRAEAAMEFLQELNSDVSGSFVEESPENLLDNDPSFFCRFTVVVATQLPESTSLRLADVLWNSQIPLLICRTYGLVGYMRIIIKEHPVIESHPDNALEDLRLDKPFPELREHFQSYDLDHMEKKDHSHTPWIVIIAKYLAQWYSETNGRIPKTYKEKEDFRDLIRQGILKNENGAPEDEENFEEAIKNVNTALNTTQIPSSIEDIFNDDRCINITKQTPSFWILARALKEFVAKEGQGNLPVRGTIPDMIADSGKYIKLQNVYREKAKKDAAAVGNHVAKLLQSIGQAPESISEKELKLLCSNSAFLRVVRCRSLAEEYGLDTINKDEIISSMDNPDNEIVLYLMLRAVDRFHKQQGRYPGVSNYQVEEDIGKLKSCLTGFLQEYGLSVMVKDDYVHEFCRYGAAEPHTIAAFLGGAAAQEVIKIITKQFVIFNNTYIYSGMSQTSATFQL
Chain of NEDD8-activating enzyme E1 regulatory subunit/NEDD8-activating enzyme E1 catalytic subunit (Q8TBC4 whole entry): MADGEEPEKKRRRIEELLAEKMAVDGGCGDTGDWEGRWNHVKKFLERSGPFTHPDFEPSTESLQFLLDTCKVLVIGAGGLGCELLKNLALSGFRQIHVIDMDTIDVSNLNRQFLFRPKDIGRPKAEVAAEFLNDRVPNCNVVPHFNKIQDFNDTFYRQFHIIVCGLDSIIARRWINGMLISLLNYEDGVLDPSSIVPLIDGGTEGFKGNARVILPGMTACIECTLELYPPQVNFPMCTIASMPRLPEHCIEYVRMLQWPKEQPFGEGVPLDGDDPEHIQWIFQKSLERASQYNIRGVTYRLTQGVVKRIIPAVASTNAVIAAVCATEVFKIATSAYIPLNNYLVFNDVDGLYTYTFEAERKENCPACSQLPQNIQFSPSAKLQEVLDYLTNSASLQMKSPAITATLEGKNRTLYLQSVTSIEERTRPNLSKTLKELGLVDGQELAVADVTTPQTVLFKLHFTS

This passage reports IC50 results from BindingDB's records for patent US12378251 (Shanghai Institute Of Materia Medica, 2025).

A word on the IC50: it is the concentration at which inhibition is half-maximal. A low value points to greater potency.

For the molecule `NS(=O)(=O)OCC1CC(n2nnc3c(N[C@H]4CCc5ccccc54)ncnc32)CC1O` (some centres undefined) [US12378251, Compound S1], the IC50 is less than 100 nM. Then `NS(=O)(=O)OCC1CC(n2nnc3c(NCc4cccs4)ncnc32)CC1O` (centres undefined) [US12378251, Compound S3], with less than 100 nM. Then `NS(=O)(=O)OCC1CC(n2nnc3c(Nc4cnc5ccccn45)ncnc32)CC1O` (centres undefined) [US12378251, Compound S19], with greater than 1000 nM; and `NS(=O)(=O)OCC1CC(n2nnc3c(NCc4ccccc4F)ncnc32)CC1O` (centres undefined) [US12378251, Compound S2], with less than 100 nM. With `NS(=O)(=O)OCC1CC(n2nnc3c(N[C@H]4CC5(CCNCC5)c5ccccc54)ncnc32)CC1O` (some centres undefined) [US12378251, Compound S14], the IC50 was less than 100 nM.

With `CCCCCCNc1ncnc2c1nnn2C1CC(O)C(COS(N)(=O)=O)C1` (centres undefined) [US12378251, Compound S8], the IC50 is less than 100 nM. In the case of `COC(=O)[C@H]1C=C[C@@H](Nc2ncnc3c2nnn3C2CC(O)C(COS(N)(=O)=O)C2)C1` (some centres undefined) [US12378251, Compound S20] it was less than 100 nM.

As to `NS(=O)(=O)OCC1CC(n2nnc3c(Nc4n[nH]c5ccccc45)ncnc32)CC1O` (centres undefined) [US12378251, Compound S17], the IC50 is greater than 1000 nM. Take `NS(=O)(=O)OCC1CC(n2nnc3c(NCc4ccco4)ncnc32)CC1O` (centres undefined) [US12378251, Compound S4]: the IC50 is less than 100 nM. Then `NS(=O)(=O)OCC1CC(n2nnc3c(NC4CCCC4)ncnc32)CC1O` (centres undefined) [US12378251, Compound S21], with greater than 1000 nM; and `NS(=O)(=O)OCC1CC(n2nnc3c(NCCc4ccccc4)ncnc32)CC1O` (centres undefined) [US12378251, Compound S6], with less than 100 nM; and `NS(=O)(=O)OC[C@@H]1C[C@@H](n2nnc3c(N[C@@H]4C[C@H]4c4ccc(F)c(F)c4)ncnc32)CC1O` (some centres undefined) [US12378251, Compound S16], with greater than 1000 nM. `NS(=O)(=O)OCC1CC(n2nnc3c(N[C@@H]4c5ccccc5C[C@@H]4O)ncnc32)CC1O` (some centres undefined) [US12378251, Compound S9]: the IC50 was less than 100 nM.

Consider `NS(=O)(=O)OCC1CC(n2nnc3c(Nn4ccc5ccccc54)ncnc32)CC1O` (centres undefined) [US12378251, Compound S18], for which the concentration for half-maximal inhibition (IC50) was greater than 1000 nM.
